Data on 14 molecules can be found in ChEMBL document CHEMBL1133229, “Parallel synthesis and evaluation of N-(1-phenylethyl)-5-phenyl-imidazole-2-amines as Na+/K+ ATPase inhibitors” (Bioorg Med Chem Lett, 2000).

The first assay deals with Sodium/potassium-transporting ATPase. The assay is described as follows: Inhibition of myocardial Na+/K+ ATPase from canine cardiac sarcolemma. It counts as protein-complex assay, Canis lupus familiaris.
Settings: not given
As for `CC(Nc1ncc(-c2ccc(OC(F)(F)F)cc2)n1C)c1ccccc1` (centres undefined), half-maximal inhibition (IC50) required 33 µM. Still for that read-out and setting: with `C[C@@H](Nc1ncc(-c2ccccc2)n1C)c1ccccc1` the figure was 10 µM. Still for that read-out and setting: with `CC(Nc1ncc(-c2ccccc2)n1C)c1ccccc1` (centres undefined) the figure was 38 µM; with `C[C@H](Nc1ncc(-c2ccccc2)n1C)c1ccccc1`, 61 µM. On the same count and under the same terms, with `CCC(Nc1ncc(-c2ccccc2)n1C)c1ccc(Cl)cc1` (centres undefined) the figure was 0.8 µM; with `CCC(C)C(Nc1ncc(-c2ccccc2)n1C)c1ccccc1` (centres undefined), 77 µM; with `CC(Nc1ncc(-c2ccccc2)n1C)c1ccc(Cl)cc1` (centres undefined), 1.3 µM. Regarding `CC(Nc1ncc(-c2ccccc2)n1C)c1ccc(F)cc1` (centres undefined), 10 µM corresponded to half-maximal inhibition (IC50). On the same count and under the same terms, with `CC(Nc1ncc(-c2ccc3ccccc3c2)n1C)c1ccccc1` (centres undefined) the figure was 2.1 µM; with `CC(Nc1ncc(-c2cccc(-c3ccccc3)c2)n1C)c1ccccc1` (centres undefined), 14 µM. Same read-out and setting: with `CC(Nc1ncc(-c2cc(F)cc(F)c2)n1C)c1ccccc1` (centres undefined) the figure was 52 µM; with `CC(Nc1ncc(-c2cc(C(F)(F)F)cc(C(F)(F)F)c2)n1C)c1ccccc1` (centres undefined), 88 µM; with `COc1ccc(-c2cnc(NC(C)c3ccccc3)n2C)cc1OC` (centres undefined), 99 µM.

A further assay is filed under the species Cavia porcellus. In words: Compound was evaluated for inotropic activity in guinea pig papillary muscle. It is filed as functional. The note with it: Muscle tissue.
Regarding `COc1cc2c(cc1OC)-c1cnc(NCc3ccccc3)n1CC2`, the EC50 – broadly, the concentration giving half of the maximal effect – worked out at 1 µM.
